This passage reports TGI results from PubChem BioAssay (NCI).

Among the test systems are NCI/ADR-RES ovarian; SK-OV-3 ovarian; SK-MEL-5 melanoma; KM12 colon; SN12C renal; A549 NSCLC; CCRF-CEM leukemia; HCT-15 colon; OVCAR-5 ovarian; 786-0 renal; TK-10 renal; HT29 colon; SK-MEL-28 melanoma; SF-295 CNS; DU-145 prostate; HOP-62 NSCLC.
Holding throughout (assay): NCI anticancer screen, dose series, 48 h

Each structure is given as a SMILES string.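 Method: 48-hour compound exposure of cells in 96-well plates, five concentrations, linear interpolation of endpoints. The concentration for full growth arrest is given as TGI.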

Take `COC(=O)c1ccc2c(c1)CC1(C2)Cc2cc3c(c(C(=O)OC)c2C1)CCCC3` (configuration not stated): the TGI in the experiment with NCI/ADR-RES ovarian is above 100 µM; in the experiment on SK-OV-3 ovarian it was above 100 µM; with SK-MEL-5 melanoma it was 42 µM; in the experiment with KM12 colon, above 100 µM; in the experiment on SN12C renal it was above 100 µM; in the experiment with A549 NSCLC, above 100 µM. Moreover, the TGI in the experiment on CCRF-CEM leukemia, in the experiment with HCT-15 colon, in the experiment with OVCAR-5 ovarian, in the experiment on 786-0 renal, in the experiment with TK-10 renal and with HT29 colon was above 100 µM throughout. Further, the TGI in the experiment with SK-MEL-28 melanoma, in the experiment with SF-295 CNS, with DU-145 prostate and with HOP-62 NSCLC was above 100 µM in each case.
Regarding `O=C(CCCN1CCC2(CC1)C(=O)NC(=O)N2c1ccccc1)c1ccc(F)cc1`, the TGI in the experiment with NCI/ADR-RES ovarian, with SK-OV-3 ovarian, in the experiment with SK-MEL-5 melanoma, with KM12 colon, with SN12C renal and in the experiment on A549 NSCLC was above 100 µM in each case. Also, the TGI in the experiment on CCRF-CEM leukemia, in the experiment on HCT-15 colon, in the experiment with OVCAR-5 ovarian, in the experiment with 786-0 renal, in the experiment with TK-10 renal and in the experiment on HT29 colon was above 100 µM each time. In addition, the TGI in the experiment on SK-MEL-28 melanoma, with SF-295 CNS, in the experiment with DU-145 prostate and in the experiment on HOP-62 NSCLC was above 100 µM throughout.
`COC(=O)C1Cc2c([nH]c3ccccc23)C(c2cccc(O)c2)N1` (configuration not stated): the TGI in the experiment on NCI/ADR-RES ovarian is 49.2 µM; in the experiment on SK-OV-3 ovarian it was above 100 µM; with SK-MEL-5 melanoma, above 100 µM; with KM12 colon it was above 100 µM; in the experiment with SN12C renal, above 100 µM; in the experiment on A549 NSCLC, above 100 µM. The TGI is 43.2 µM with CCRF-CEM leukemia; above 100 µM in the experiment on HCT-15 colon; 82.9 µM in the experiment on OVCAR-5 ovarian; above 100 µM with 786-0 renal; above 100 µM with TK-10 renal; 83.4 µM in the experiment with HT29 colon. Further, the TGI was 73.4 µM with SK-MEL-28 melanoma, above 100 µM in the experiment on SF-295 CNS, 55.3 µM in the experiment with DU-145 prostate and above 100 µM in the experiment with HOP-62 NSCLC.
As to `CSCCC(NCc1c(O)ccc2ccc(=O)oc12)C(=O)O` (configuration not stated), the TGI in the experiment on NCI/ADR-RES ovarian, with SK-OV-3 ovarian, in the experiment on SK-MEL-5 melanoma, in the experiment with KM12 colon, in the experiment on SN12C renal and in the experiment with A549 NSCLC was above 100 µM in each case. Further, the TGI in the experiment with CCRF-CEM leukemia, with HCT-15 colon, in the experiment on OVCAR-5 ovarian, in the experiment with 786-0 renal, in the experiment with TK-10 renal and in the experiment with HT29 colon was above 100 µM each time. Also, the TGI in the experiment with SK-MEL-28 melanoma, in the experiment on SF-295 CNS, in the experiment on DU-145 prostate and in the experiment with HOP-62 NSCLC was above 100 µM each time.
Turning to `O=C(O)C(Cc1ccc2c(c1)CCC2)(Cc1ccc2c(c1)CCC2)C(=O)O`, the TGI in the experiment with NCI/ADR-RES ovarian, in the experiment on SK-OV-3 ovarian, in the experiment on SK-MEL-5 melanoma, in the experiment with KM12 colon, in the experiment on SN12C renal and in the experiment on A549 NSCLC was above 100 µM each time. For the same compound, the TGI with CCRF-CEM leukemia, in the experiment with HCT-15 colon, in the experiment with OVCAR-5 ovarian, with 786-0 renal, in the experiment on TK-10 renal and in the experiment with HT29 colon was above 100 µM throughout. The TGI in the experiment on SK-MEL-28 melanoma, in the experiment on SF-295 CNS, in the experiment with DU-145 prostate and with HOP-62 NSCLC was above 100 µM each time.
For `N#Cc1cccc(C2ON=C(c3ccc([N+](=O)[O-])cc3)N2C23CC4CC(CC(C4)C2)C3)c1` (configuration not stated), the TGI in the experiment with NCI/ADR-RES ovarian, in the experiment with SK-OV-3 ovarian, with SK-MEL-5 melanoma, in the experiment with KM12 colon, in the experiment on SN12C renal and with A549 NSCLC was above 100 µM each time. The TGI is above 100 µM in the experiment on CCRF-CEM leukemia; above 100 µM in the experiment on HCT-15 colon; 31 µM with OVCAR-5 ovarian; above 100 µM with 786-0 renal; above 100 µM in the experiment on TK-10 renal; above 100 µM in the experiment with HT29 colon. Also, the TGI with SK-MEL-28 melanoma, with SF-295 CNS, in the experiment on DU-145 prostate and in the experiment with HOP-62 NSCLC was above 100 µM throughout.
Turning to `CCCCOC(=O)C(=O)C(CC(C(=O)Cc1ccccc1)c1ccccc1)C(=O)C=C(C)C` (configuration not stated), the TGI with NCI/ADR-RES ovarian, in the experiment on SK-OV-3 ovarian, with SK-MEL-5 melanoma, in the experiment on KM12 colon, in the experiment on SN12C renal and with A549 NSCLC was above 100 µM in each case. The TGI with CCRF-CEM leukemia, with HCT-15 colon, in the experiment on OVCAR-5 ovarian, in the experiment with 786-0 renal, in the experiment on TK-10 renal and in the experiment with HT29 colon was above 100 µM each time. Besides, the TGI in the experiment with SK-MEL-28 melanoma, in the experiment with SF-295 CNS, in the experiment with DU-145 prostate and in the experiment with HOP-62 NSCLC was above 100 µM throughout.
For the compound `O=C1NCC2(CCNCC2)N1c1ccccc1`, the TGI in the experiment on NCI/ADR-RES ovarian, with SK-MEL-5 melanoma, in the experiment on KM12 colon, in the experiment on SN12C renal, in the experiment with A549 NSCLC and in the experiment with CCRF-CEM leukemia was above 100 µM throughout. The TGI in the experiment on HCT-15 colon, in the experiment with OVCAR-5 ovarian, in the experiment with 786-0 renal, with TK-10 renal, with HT29 colon and with SK-MEL-28 melanoma was above 100 µM in each case. Besides, the TGI in the experiment with SF-295 CNS, in the experiment with DU-145 prostate and in the experiment on HOP-62 NSCLC was above 100 µM throughout.
Take `CC(=O)OCCC1c2ccccc2-n2nc(-c3ccccc3)c(O)c21` (configuration not stated): the TGI with NCI/ADR-RES ovarian turned out to be 47 µM; in the experiment on SK-MEL-5 melanoma it was 33 µM; in the experiment with KM12 colon, 38.5 µM; in the experiment with SN12C renal, 31.1 µM; with A549 NSCLC, 37.3 µM; in the experiment on CCRF-CEM leukemia, 50 µM. The TGI with HCT-15 colon amounted to 55.1 µM; in the experiment with OVCAR-5 ovarian it was 38.7 µM; in the experiment with 786-0 renal it was 38.4 µM; in the experiment on TK-10 renal, 43.2 µM; in the experiment on HT29 colon it was 42.4 µM; with SK-MEL-28 melanoma, 30.6 µM. In addition, the TGI with SF-295 CNS was determined as 45 µM; in the experiment on DU-145 prostate, 41.1 µM; with HOP-62 NSCLC it was 30.1 µM.
